# Results: publication PMC12203311, “Design, synthesis, in silico and in vitro evaluation of pyrrole–indole hybrids as dual tubulin and aromatase inhibitors with potent anticancer activities” (RSC Advances, 2025)
# How the values were obtained:
# Experiment in all cases: NCI60 five-dose screen
# ACHN = format: cell-based; details: Homo sapiens, renal cancer; for CC50: read-out: LC50 (the source's name)
# SF-539 = format: cell-based; details: Homo sapiens, SF-539, CNS cancer; for CC50: read-out: LC50 (the source's name)
# NCI/ADR-RES = format: cell-based, human; details: Homo sapiens, ovarian cancer; for CC50: read-out: LC50 (the source's name)
# SN12C = format: cell-based; details: Homo sapiens, renal cancer; for CC50: read-out: LC50 (the source's name)
# SNB-19 = format: cell-based; details: Homo sapiens, SNB-19, CNS cancer; for CC50: read-out: LC50 (the source's name)
# BT-549 = format: cell-based; details: Homo sapiens, BT-549, breast cancer; for CC50: read-out: LC50 (the source's name)
# HCT-116 = format: cell-based; details: Homo sapiens, HCT-116, colon cancer; for CC50: read-out: LC50 (the source's name)
# MCF7 = format: cell-based; details: Homo sapiens, MCF7, breast cancer; for CC50: read-out: LC50 (the source's name)
# HT29 = format: cell-based; details: Homo sapiens, HT-29, HT29, colon cancer; for CC50: read-out: LC50 (the source's name)
# LOX IMVI = format: cell-based; details: Homo sapiens, melanoma; for CC50: read-out: LC50 (the source's name)
# SF-268 = format: cell-based; details: Homo sapiens, SF-268, CNS cancer; for CC50: read-out: LC50 (the source's name)
# A549/ATCC = format: cell-based; details: Homo sapiens, NSC lung cancer; for CC50: read-out: LC50 (the source's name)
# MOLT-4 = format: cell-based; details: Homo sapiens, MOLT-4, leukemia; for CC50: read-out: LC50 (the source's name)
# UACC-62 = format: cell-based; details: Homo sapiens, UACC-62, melanoma; for CC50: read-out: LC50 (the source's name)
# SF-295 = format: cell-based; details: Homo sapiens, SF-295, CNS cancer; for CC50: read-out: LC50 (the source's name)
# RPMI-8226 = format: cell-based; details: Homo sapiens, RPMI-8226, leukemia; for CC50: read-out: LC50 (the source's name)
# SK-MEL-2 = format: cell-based; details: Homo sapiens, SK-MEL-2, melanoma; for CC50: read-out: LC50 (the source's name)
# HCT-15 = format: cell-based; details: Homo sapiens, HCT-15, colon cancer; for CC50: read-out: LC50 (the source's name)
# K-562 = format: cell-based; details: Homo sapiens, K562, K-562, leukemia; for CC50: read-out: LC50 (the source's name)
# PC-3 = format: cell-based; details: Homo sapiens, PC-3, prostate cancer; for CC50: read-out: LC50 (the source's name)
# OVCAR-3 = format: cell-based; details: Homo sapiens, OVCAR-3, ovarian cancer; for CC50: read-out: LC50 (the source's name)
# OVCAR-8 = format: cell-based; details: Homo sapiens, OVCAR-8, ovarian cancer; for CC50: read-out: LC50 (the source's name)
# SK-OV-3 = format: cell-based; details: Homo sapiens, SK-OV-3, ovarian cancer; for CC50: read-out: LC50 (the source's name)
# MDA-MB-231/ATCC = format: cell-based; details: Homo sapiens, breast cancer; for CC50: read-out: LC50 (the source's name)
# NCI-H226 = format: cell-based; details: Homo sapiens, NCI-H226, NSC lung cancer; for CC50: read-out: LC50 (the source's name)
# MDA-MB-468 = format: cell-based; details: Homo sapiens, MDA-MB-468, breast cancer; for CC50: read-out: LC50 (the source's name)
# T-47D = format: cell-based; details: Homo sapiens, T47D, breast cancer; for CC50: read-out: LC50 (the source's name)
# IGROV1 = format: cell-based; details: Homo sapiens, IGROV-1; IGROV1, ovarian cancer
# HCC-2998 = format: cell-based; details: Homo sapiens, HCC-2998, colon cancer; for CC50: read-out: LC50 (the source's name)
# SK-MEL-5 = format: cell-based, human; details: Homo sapiens; for CC50: SK-MEL-5, SK-MEL-5, melanoma, read-out: LC50 (the source's name); for GI50: SK-MEL-5, melanoma
# EKVX = format: cell-based; details: Homo sapiens, NSC lung cancer; for CC50: read-out: LC50 (the source's name)
# SNB-75 = format: cell-based; details: Homo sapiens, SNB-75, CNS cancer; for CC50: read-out: LC50 (the source's name)
structure (smiles),measurement,setting,value
"O=C(N/N=C/c1ccc([N+](=O)[O-])[nH]1)c1[nH]c2ccc(Br)cc2c1-c1ccccc1 [Derivative 3p, (E)-5-Bromo-N′-((5-nitro-1H-pyrrol-2-yl)methylene)-3-phenyl-1H-indole-2-carbohydrazide]",GI50,ACHN,1.26 µM
same,CC50,ACHN,38 µM
same,GI50,SF-539,0.389 µM
same,CC50,SF-539,28.1 µM
same,GI50,NCI/ADR-RES,0.285 µM
same,CC50,NCI/ADR-RES,16.2 µM
same,GI50,SN12C,1.24 µM
same,CC50,SN12C,36.7 µM
same,GI50,SNB-19,3.34 µM
same,CC50,SNB-19,42.4 µM
same,GI50,BT-549,1.52 µM
same,CC50,BT-549,28.4 µM
same,GI50,HCT-116,0.439 µM
same,CC50,HCT-116,33.8 µM
same,GI50,MCF7,0.394 µM
same,CC50,MCF7,39 µM
same,GI50,HT29,0.55 µM
same,CC50,HT29,43.9 µM
same,GI50,LOX IMVI,0.519 µM
same,CC50,LOX IMVI,35.8 µM
same,GI50,SF-268,1.47 µM
same,CC50,SF-268,44.2 µM
same,GI50,A549/ATCC,2.23 µM
same,CC50,A549/ATCC,44.9 µM
same,GI50,MOLT-4,0.537 µM
same,CC50,MOLT-4,> 100 µM
same,GI50,UACC-62,0.451 µM
same,CC50,UACC-62,40.9 µM
same,GI50,SF-295,0.413 µM
same,CC50,SF-295,29.9 µM
same,GI50,RPMI-8226,0.468 µM
same,CC50,RPMI-8226,> 100 µM
same,GI50,SK-MEL-2,2.18 µM
same,CC50,SK-MEL-2,36.5 µM
same,GI50,HCT-15,0.607 µM
same,CC50,HCT-15,35.7 µM
same,GI50,K-562,0.365 µM
same,CC50,K-562,> 100 µM
same,GI50,PC-3,1.2 µM
same,CC50,PC-3,78.5 µM
same,GI50,OVCAR-3,0.602 µM
same,CC50,OVCAR-3,34.8 µM
same,GI50,OVCAR-8,1.02 µM
same,CC50,OVCAR-8,39 µM
same,GI50,SK-OV-3,2.95 µM
same,CC50,SK-OV-3,43 µM
same,GI50,MDA-MB-231/ATCC,2.14 µM
same,CC50,MDA-MB-231/ATCC,46.6 µM
same,GI50,NCI-H226,2.43 µM
same,CC50,NCI-H226,46.9 µM
same,GI50,MDA-MB-468,0.873 µM
same,CC50,MDA-MB-468,34.7 µM
same,GI50,T-47D,2.4 µM
same,CC50,T-47D,59.6 µM
same,GI50,IGROV1,1.48 µM
same,GI50,HCC-2998,1.67 µM
same,CC50,HCC-2998,19.6 µM
same,CC50,SK-MEL-5,8.69 µM
same,GI50,SK-MEL-5,1.02 µM
same,GI50,EKVX,5.37 µM
same,CC50,EKVX,45.7 µM
same,GI50,SNB-75,0.482 µM
same,CC50,SNB-75,40.5 µM
"O=C(N/N=C/c1cc([N+](=O)[O-])c[nH]1)c1[nH]c2ccc(Br)cc2c1-c1ccccc1 [Derivative 3q, (E)-5-Bromo-N′-((4-nitro-1H-pyrrol-2-yl)methylene)-3-phenyl-1H-indole-2-carbohydrazide]",GI50,ACHN,0.791 µM
same,CC50,ACHN,> 100 µM
same,GI50,SF-539,0.822 µM
same,CC50,SF-539,> 100 µM
same,GI50,NCI/ADR-RES,0.434 µM
same,CC50,NCI/ADR-RES,> 100 µM
same,GI50,SN12C,2.58 µM
same,CC50,SN12C,> 100 µM
same,GI50,SNB-19,6.25 µM
same,CC50,SNB-19,> 100 µM
same,GI50,BT-549,2.47 µM
same,CC50,BT-549,> 100 µM
same,GI50,HCT-116,0.491 µM
same,CC50,HCT-116,> 100 µM
same,GI50,MCF7,0.354 µM
same,CC50,MCF7,> 100 µM
same,GI50,HT29,0.469 µM
same,CC50,HT29,> 100 µM
same,GI50,LOX IMVI,0.647 µM
same,CC50,LOX IMVI,> 100 µM
same,GI50,SF-268,0.774 µM
same,CC50,SF-268,> 100 µM
same,GI50,A549/ATCC,1.79 µM
same,CC50,A549/ATCC,> 100 µM
same,GI50,MOLT-4,0.657 µM
same,CC50,MOLT-4,> 100 µM
same,GI50,UACC-62,0.538 µM
same,CC50,UACC-62,> 100 µM
same,GI50,SF-295,0.623 µM
same,CC50,SF-295,> 100 µM
same,GI50,RPMI-8226,3.71 µM
same,CC50,RPMI-8226,> 100 µM
same,GI50,SK-MEL-2,1.3 µM
same,CC50,SK-MEL-2,> 100 µM
same,GI50,HCT-15,0.504 µM
same,CC50,HCT-15,> 100 µM
same,GI50,K-562,0.387 µM
same,CC50,K-562,> 100 µM
same,GI50,PC-3,0.724 µM
same,CC50,PC-3,> 100 µM
same,GI50,OVCAR-3,0.397 µM
same,CC50,OVCAR-3,> 100 µM
same,GI50,OVCAR-8,10.2 µM
same,CC50,OVCAR-8,> 100 µM
same,GI50,SK-OV-3,3.14 µM
same,CC50,SK-OV-3,> 100 µM
same,GI50,MDA-MB-231/ATCC,17.4 µM
same,CC50,MDA-MB-231/ATCC,> 100 µM
same,GI50,NCI-H226,3.39 µM
same,CC50,NCI-H226,> 100 µM
same,GI50,MDA-MB-468,0.503 µM
same,CC50,MDA-MB-468,> 100 µM
same,GI50,T-47D,2.21 µM
same,CC50,T-47D,> 100 µM
same,GI50,IGROV1,2.06 µM
same,GI50,HCC-2998,3.66 µM
same,CC50,HCC-2998,> 100 µM
same,CC50,SK-MEL-5,69.9 µM
same,GI50,SK-MEL-5,0.671 µM
same,GI50,EKVX,> 100 µM
same,CC50,EKVX,> 100 µM
same,GI50,SNB-75,0.242 µM
same,CC50,SNB-75,> 100 µM
"O=C(N/N=C/c1cc(Cl)c[nH]1)c1[nH]c2ccc(Br)cc2c1-c1ccccc1 [Derivative 3h, (E)-5-Bromo-N′-((4-chloro-1H-pyrrol-2-yl)methylene)-3-phenyl-1H-indole-2-carbohydrazide]",GI50,ACHN,0.493 µM
same,CC50,ACHN,32.1 µM
same,GI50,SF-539,0.231 µM
same,CC50,SF-539,22.1 µM
same,GI50,NCI/ADR-RES,0.2 µM
same,GI50,SN12C,0.391 µM
same,CC50,SN12C,15.3 µM
same,GI50,SNB-19,0.638 µM
same,CC50,SNB-19,61.9 µM
same,GI50,BT-549,0.255 µM
same,CC50,BT-549,18.1 µM
same,GI50,HCT-116,0.331 µM
same,CC50,HCT-116,29.1 µM
same,GI50,MCF7,0.309 µM
same,CC50,MCF7,53.5 µM
same,GI50,HT29,0.287 µM
same,CC50,HT29,7.2 µM
same,GI50,LOX IMVI,0.37 µM
same,CC50,LOX IMVI,16.7 µM
same,GI50,SF-268,0.388 µM
same,CC50,SF-268,77.3 µM
same,GI50,A549/ATCC,0.43 µM
same,CC50,A549/ATCC,47.4 µM
same,GI50,MOLT-4,0.283 µM
same,GI50,UACC-62,0.559 µM
same,CC50,UACC-62,66.3 µM
same,GI50,SF-295,0.237 µM
same,CC50,SF-295,58.5 µM
same,GI50,RPMI-8226,0.446 µM
same,CC50,RPMI-8226,> 100 µM
same,GI50,SK-MEL-2,0.26 µM
same,CC50,SK-MEL-2,47.9 µM
same,GI50,HCT-15,0.302 µM
same,CC50,HCT-15,21.9 µM
same,GI50,K-562,0.234 µM
same,CC50,K-562,5.64 µM
same,GI50,PC-3,0.426 µM
same,CC50,PC-3,47.6 µM
same,GI50,OVCAR-3,0.27 µM
same,CC50,OVCAR-3,19.7 µM
same,GI50,OVCAR-8,0.214 µM
same,CC50,OVCAR-8,0.988 µM
same,GI50,SK-OV-3,0.519 µM
same,CC50,SK-OV-3,45.4 µM
same,GI50,MDA-MB-231/ATCC,0.296 µM
same,CC50,MDA-MB-231/ATCC,26.9 µM
same,GI50,NCI-H226,0.604 µM
same,CC50,NCI-H226,> 100 µM
same,GI50,MDA-MB-468,0.251 µM
same,CC50,MDA-MB-468,27.8 µM
same,GI50,T-47D,0.546 µM
same,CC50,T-47D,92.6 µM
same,GI50,IGROV1,0.538 µM
same,GI50,HCC-2998,0.224 µM
same,CC50,HCC-2998,4.2 µM
same,CC50,SK-MEL-5,3.08 µM
same,GI50,SK-MEL-5,0.228 µM
same,GI50,EKVX,1.28 µM
same,CC50,EKVX,> 100 µM
same,GI50,SNB-75,0.247 µM
same,CC50,SNB-75,75.5 µM
